From US20230126447A1, “OCULAR DRUG DEPOT FOR COMPLEMENT-MEDIATED DISORDERS” (priority 2020, published 2023)
Several values for one entry are separate records, joined by “and”; a condition that tells them apart may be missing. Equal entries are not always repeated. Where two headings read alike, the source gives them in different places.

Legend:
[1] = Phase 1 single ascending dose plasma pharmacokinetics in healthy volunteers; type: in vivo, human
Description: This study was conducted in healthy human volunteers in a randomized, double-blind design. Compound 1 or placebo was administered as a single oral dose to twenty-eight healthy volunteers in three separate dose groups. […] Pharmacokinetic data from each volunteer is summarized in Table 29, and plasma concentration data is shown graphically in FIG. 19.

[2] = Ocular tissue and plasma pharmacokinetics, 50 mg/kg BID oral, New Zealand White rabbits (Example 4); type: in vivo; details: one-hour post-dose on Day 15
Description: Study design, including group designation and dose levels, are outlined in Table 15. […] Two Dutch Belted rabbits received vehicle only oral gavage doses for tolerability assessment. […] The dose volume was 5 mL/kg/dose for all groups. Safety was assessed with toxicological and ophthalmic examinations, including slit lamp biomicroscopy, indirect ophthalmoscopy, rebound tonometry, and ultrasonic corneal pachymetry. […] Plasma, vitreous humor (VH), retina, choroid-retina pigmented epithelium (Choroid-RPE), optic nerve (ON), and iris-ciliary body (I-CB) were analyzed by LC-MS/MS to quantify test article concentrations. The lower limit of quantitation (LLOQ) in plasma and vitreous humor was 1.0 ng/mL.

[3] = In vitro binding to melanin from Sepia officinalis; details: S. officinalis melanin 50 μg/mL, PBS, 37° C., 1 hour
Description: […] The melanin solution was stored in the dark at 37° C. until use.
Immediately after the assay, samples were added to an equal volume of warm PBS, aliquots (3 μL each) were removed, added to 100 μL of acetonitrile containing carbutamide as internal standard, and then diluted with water (197 μL). These time-zero samples, prepared in PBS only, were also used as calibration standards.
The assay plates containing samples with and without melanin were incubated in the dark with shaking at 37° C. for 1 hour. Following incubation, the samples were centrifuged for 15 minutes at approximately 4000 rpm at 37° C. to sediment the melanin. Sample supernatant (3 μL) was added to 100 μL of acetonitrile containing the internal standard and then diluted with water (197 μL).
The column was set to a temperature of 55° C. […]
Analytes and internal standards were detected using an Applied Biosystems Sciex API-5500 triple quadrupole mass spectrometer with Agilent 1260 Infinity Binary Pump and Apricot Designs ADDA High-Speed Dual Arm Autosampling System. The instrument was equipped with an electrospray ionization source (600° C.) operated in the positive ion mode. Analytes and internal standards for all samples were monitored in the multiple-reaction-monitoring scan mode.

[4] = Group 1, 200 mg single oral dose, individual subjects
[5] = Group 2, 600 mg single oral dose, individual subjects
[6] = Group 3, 1200 mg single oral dose, individual subjects

CC(=O)c1nn(CC(=O)N2C[C@H](F)C[C@H]2C(=O)Nc2cccc(Br)n2)c2ccc(-c3cnc(C)nc3)cc12 [Compound 1, (2S,4R)-1-(2-(3-Acetyl-5-(2-methylpyrimidin-5-yl)-1H-indazol-1-yl)acetyl)-N-(6-bromopyridin-2-yl)-4-fluoropyrrolidine-2-carboxamide]
AUC(0-24) [1, 4]: 3387.20 ng·h/mL and 4128.01 ng·h/mL and 2339.30 ng·h/mL and 3615.79 ng·h/mL and 1888.95 ng·h/mL and 2229.07 ng·h/mL
AUC(0-∞) [1, 4]: 3616.53 ng·h/mL and 4241.37 ng·h/mL and 2569.69 ng·h/mL and 3822.48 ng·h/mL and 1993.07 ng·h/mL and 2385.64 ng·h/mL
Cmax [1, 4]: 950 ng/mL and 2060 ng/mL and 764 ng/mL and 1380 ng/mL and 635 ng/mL and 562 ng/mL
Tmax [1, 4]: 1.25 h
AUC(0-24) [1, 5]: 6591.55 ng·h/mL and 6135.83 ng·h/mL and 6020.33 ng·h/mL and 4079.30 ng·h/mL and 7288.50 ng·h/mL
AUC(0-∞) [1, 5]: 6805.91 ng·h/mL and 7335.98 ng·h/mL and 6903.06 ng·h/mL and 4687.40 ng·h/mL and 8671.53 ng·h/mL
Cmax [1, 5]: 2480 ng/mL and 2100 ng/mL and 1380 ng/mL and 1810 ng/mL
Tmax [1, 5]: 2.00 h and 1.25 h
AUC(0-24) [1, 6]: 11822.00 ng·h/mL and 10219.40 ng·h/mL and 8431.90 ng·h/mL and 11357.50 ng·h/mL and 14054.00 ng·h/mL
AUC(0-∞) [1, 6]: 13297.29 ng·h/mL and 10982.71 ng·h/mL and 10243.93 ng·h/mL and 13190.18 ng·h/mL and 15424.93 ng·h/mL
Cmax [1, 6]: 3080 ng/mL and 3230 ng/mL and 3530 ng/mL and 1940 ng/mL and 2530 ng/mL and 4100 ng/mL
AUC(0-t) ([1]; human, po, 200 mg, Group 1, 200 mg single oral dose, Mean (N 6), read-out: AUC(0-24)): 2930 ng·h/mL
AUC(0-inf) ([1]; human, po, 200 mg, Group 1, 200 mg single oral dose, Mean (N 6), read-out: AUC(0-∞)): 3100 ng·h/mL
Cmax ([1]; human, po, 200 mg, Group 1, 200 mg single oral dose, Mean (N 6), read-out: Cmax): 1060 ng/mL
Tmax ([1]; human, po, 200 mg, Group 1, 200 mg single oral dose, Mean (N 6), read-out: Tmax): 1.79 h
Tmax ([1]; human, po, 200 mg, Group 1, 200 mg single oral dose, individual subjects, read-out: Tmax): 1.5 h
AUC(0-t) ([1]; human, po, 200 mg, Group 1, 200 mg single oral dose, read-out: Mean AUC(0-24)): 2390 ng·h/mL
AUC(0-inf) ([1]; human, po, 200 mg, Group 1, 200 mg single oral dose, read-out: Mean AUC(0-∞)): 3020 ng·h/mL
Cmax ([1]; human, po, 200 mg, Group 1, 200 mg single oral dose, read-out: Mean Cmax): 1060 ng/mL
AUC(0-t) ([1]; human, po, 600 mg, Group 2, 600 mg single oral dose, Mean (N 6), read-out: AUC(0-24)): 6190 ng·h/mL
AUC(0-inf) ([1]; human, po, 600 mg, Group 2, 600 mg single oral dose, Mean (N 6), read-out: AUC(0-∞)): 7090 ng·h/mL
Cmax ([1]; human, po, 600 mg, Group 2, 600 mg single oral dose, Mean (N 6), read-out: Cmax): 2020 ng/mL
Tmax ([1]; human, po, 600 mg, Group 2, 600 mg single oral dose, Mean (N 6), read-out: Tmax): 1.63 h
AUC(0-t) ([1]; human, po, 600 mg, Group 2, 600 mg single oral dose, individual subjects, read-out: AUC(0-24)): 7020 ng·h/mL
AUC(0-inf) ([1]; human, po, 600 mg, Group 2, 600 mg single oral dose, individual subjects, read-out: AUC(0-∞)): 8160 ng·h/mL
Cmax ([1]; human, po, 600 mg, Group 2, 600 mg single oral dose, individual subjects, read-out: Cmax): 2180 ng/mL
AUC(0-t) ([1]; human, po, 600 mg, Group 2, 600 mg single oral dose, read-out: Mean AUC(0-24)): 6190 ng·h/mL
AUC(0-inf) ([1]; human, po, 600 mg, Group 2, 600 mg single oral dose, read-out: Mean AUC(0-∞)): 7090 ng·h/mL
Cmax ([1]; human, po, 600 mg, Group 2, 600 mg single oral dose, read-out: Mean Cmax): 2020 ng/mL
AUC(0-t) ([1]; human, po, 1200 mg, Group 3, 1200 mg single oral dose, Mean (N 6), read-out: AUC(0-24)): 11400 ng·h/mL
AUC(0-inf) ([1]; human, po, 1200 mg, Group 3, 1200 mg single oral dose, Mean (N 6), read-out: AUC(0-∞)): 13200 ng·h/mL
Cmax ([1]; human, po, 1200 mg, Group 3, 1200 mg single oral dose, Mean (N 6), read-out: Cmax): 3070 ng/mL
Tmax ([1]; human, po, 1200 mg, Group 3, 1200 mg single oral dose, Mean (N 6), read-out: Tmax): 2.5 h
AUC(0-t) ([1]; human, po, 1200 mg, Group 3, 1200 mg single oral dose, individual subjects, read-out: AUC(0-24)): 12700 ng·h/mL
AUC(0-inf) ([1]; human, po, 1200 mg, Group 3, 1200 mg single oral dose, individual subjects, read-out: AUC(0-∞)): 15800 ng·h/mL
Tmax ([1]; human, po, 1200 mg, Group 3, 1200 mg single oral dose, individual subjects, read-out: Tmax): 2.5 h
AUC(0-t) ([1]; human, po, 1200 mg, Group 3, 1200 mg single oral dose, read-out: Mean AUC(0-24)): 11400 ng·h/mL
AUC(0-inf) ([1]; human, po, 1200 mg, Group 3, 1200 mg single oral dose, read-out: Mean AUC(0-∞)): 13200 ng·h/mL
Cmax ([1]; human, po, 1200 mg, Group 3, 1200 mg single oral dose, read-out: Mean Cmax): 3070 ng/mL
Choroid-RPE tissue exposure in NZW versus DB rabbit [2]: approximately five-fold lower
Bmax (binding capacity) [3]: 137 nmol/mg melanin
